Data on 25 compounds can be found in patent publication US8211907B2, “Fused indane compound” (priority 2007, dated 2012).

Structures can show the parent of a compound that is named as a salt. Where two headings read alike, the source gives them in different places. Where only a bound is given, the exact number is not on record here.

For test [1], the system named is male ddy mouse. The test can be described thus: MES (maximal electroshock seizure) inhibitory action. In kind it is in vivo. Particulars: for ED50: oral administration, electroshock 30 minutes later. The procedure:
A test compound was orally administered to a male ddy mouse, an inhibitory action on the seizures caused by an electroshock applied at 30 minutes later (Interval 10 ms, Duration 0.9 ms, Amplitude 50 mA, Gate 0.2 s) was evaluated, and an NMDA receptor inhibitory action in vivo was measured (Palmer G C, Harris E W, Ray R, Stagnitto M L, Schmiesing R J. Arch Int Pharmacodyn Ther. 1992 May-June; 317: 16-34).
Background: In the maximal electroshock model the usual endpoint is tonic extension of the hind limbs.

The target of test [2] is NMDA receptor.
Test [3] has as its system T1, NMDA receptor.
T1 construct: IC50
The test can be described thus: Intracellular calcium concentration determination by FLIPR in rat first-generation neurocytes (NMDA/glycine stimulation). In kind it is cell-based. Particulars: rat first-generation neurocytes (DIV7-9), NMDA/glycine-induced calcium rise, 10 μM MK-801 = 100% inhibition. The procedure:
1) Preparation of Rat First-Generation Neurocytes
Anesthetized with ether, Wistar rats (Nippon SLC) at the 19th day of pregnancy were let die from blood loss by breast incision. The abdomen was cut open, and the womb was extracted, and the fetus was removed. The whole brain was removed, the hemicerebrum was then isolated in Neurobasal medium (Glu, Asp-free; Gibco), and the meninx was removed. The hemicerebrum was recovered by centrifugation, and suspended in a cell-dispersing solution (0.36 mg/ml papain, 150 U/ml DNase 1, 0.02% L-cysteine monohydrochloride monohydrate, 0.02% bovine serum albumin, 0.5% glucose, Ca^2+, Mg^2+-free PBS), and treated at 37° C. for 15 minutes. This was centrifuged at 400 g for 5 minutes, and the supernatant was removed by suction. This was suspended in a neurocyte culture medium (Sumitomo Bakelite), and the cell masses were removed using a filter. The number of the living cells was counted, and 100,000 cells/well were incubated on a 96-well plate (Biocoat PDL96W black/clear (Nippon Becton Dickinson)) (37° C., 5% CO2).
2) Intracellular Calcium Concentration Determination by FLIPR (Fluorometric Imaging Plate Reader)
The culture medium of rat first-generation neurocytes (DIV7-9) was removed by suction, and the cells were washed once with a 100 μl assay buffer (Hank's Balanced Salt Solution (Ca^2+, Mg^2+-free), 20 mM Hepes-NaOH (pH 7.4), 1 mM CaCl2). 100 μl of the assay buffer containing Fluo3 (Dojin Chemical) was added thereto, and incubated for 1 hour (37° C., 5% CO2). The cells were washed three times with 100 μl of the assay buffer, and then a compound solution dissolved in 1 μl of dimethylsulfoxide, and 100 μl of the assay buffer containing 2.5 μM (final concentration) tetrodotoxin were added thereto and incubated for 30 minutes (37° C., 5% CO2). The fluorescent intensity was measured at intervals of two seconds, and ten seconds after the measurement start, 50 μl of a ligand solution (Hank's Balanced Salt Solution (Ca^2+, Mg^2+-free), 20 mM Hepes-NaOH (pH 7.4), 1 mM CaCl2, 9 μM NMDA, 30 μM glycine) containing the compound solution dissolved in 0.5 μl of dimethylsulfoxide was added thereto, and the fluorescent intensity was measured for 120 seconds from the start of the measurement. The data measured for total of 120 seconds (60 times in total) were averaged.

Test [4] deals with NMDA receptor. As to the kind of experiment: [3H] MK-801 binding test on rat brain membrane specimen.
Setting [5] is: Mus musculus, po, 0.5 h, read-out: ED50.

For orientation: ED50 means the dose at which the effect has come halfway, by size or by number of responders. What is called Ki is the dissociation constant of the complex between target and ligand, obtained from inhibition or displacement. A lower Ki goes with tighter binding. Take `c1ccc2c(c1)C[C@H]1CCCN[C@@H]21` (racemic) [Compound A, (4aRS,9bRS)-2,3,4,4a,5,9b-hexahydro-1H-indeno[1,2-b]pyridine, reference compound]: the ED50 in test [1] (setting [5]) is > 80 mg/kg. Also, in test [1] (at 80 mg/kg, oral), the anti-seizure action entry was “did not exhibit an anti-seizure action”. Besides, affinity in test [2] was put at a Ki of 38 µM.
For `c1ccc([C@@H]2c3ccccc3[C@@H]3NCCC[C@H]23)cc1` (racemic) [Compound B, (4aRS,5RS,9bRS)-5-phenyl-2,3,4,4a,5,9b-hexahydro-1H-indeno[1,2-b]pyridine, reference compound], in test [2], the inhibition constant Ki was 23 µM. This lies in the double-digit micromolar range.
Same read-out and setting: the same measure for `c1ccc([C@@H]2c3ccccc3[C@@H]3NCCC[C@H]23)cc1` (racemic) [Compound C, reference compound]: 20 µM.
Usually IC50 stands for the concentration at which inhibition is half-maximal. As to `CC[C@]12CCCN[C@H]1c1ccccc1C2` (racemic) [Example 1, (4aRS,9bRS)-4a-ethyl-2,3,4,4a,5,9b-hexahydro-1H-indeno[1,2-b]pyridine hydrochloride], the IC50 in test [3] (read-out: IC50) is 5.1 µM. Also, the median effective dose (ED50) in test [1] (setting [5]) came to 6.8 mg/kg. Moreover, the Ki in test [4] was determined as 0.9 µM.
Take `C[C@@]12CCCN[C@@H]1c1ccccc1S2` (racemic) [Example 13, (4aRS,9bRS)-4a-methyl-1,2,3,4,4a,9b-hexahydro[1]benzothieno[3,2-b]pyridine hydrochloride]: the median effective dose (ED50) in test [1] (setting [5]) is 14 mg/kg. In test [4], this compound returned a Ki of 2 µM.
Regarding `C[C@]12CCCN[C@H]1c1ccccc1C2` (racemic) [Example 22, (4aRS,9bRS)-4a-methyl-2,3,4,4a,5,9b-hexahydro-1H-indeno[1,2-b]pyridine hydrochloride], the half-maximal inhibitory concentration (IC50) in test [3] (read-out: IC50) came to 34 µM. Also, the 50% effective dose (ED50) in test [1] (setting [5]) was determined as 11 mg/kg. For the same compound, the inhibition constant Ki in test [4] was found to be 5.1 µM.
For `C[C@]12CCCCN[C@H]1c1ccccc1C2` (racemic) [Example 38-1, (5aRS,10bRS)-5a-methyl-1,2,3,4,5,5a,6,10b-octahydroindeno[1,2-b]azepine hydrochloride], the inhibition constant (Ki) in test [4] is 0.5 µM.
In test [4], `C[C@]12CCCCN[C@@H]1c1ccccc1C2` (racemic) [Example 38-2, (5aRS,10bSR)-5a-methyl-1,2,3,4,5,5a,6,10b-octahydroindeno[1,2-b]azepine hydrochloride] came in with an inhibitory constant (Ki) of 6.3 µM.
Consider `CN1CCC[C@]2(C)Cc3ccccc3[C@H]12` (racemic) [Example 42, (4aRS,9bRS)-1,4a-dimethyl-2,3,4,4a,5,9b-hexahydro-1H-indeno[1,2-b]pyridine methanesulfonate], for which the ED50 in test [1] (setting [5]) came to 31 mg/kg. Moreover, the affinity in test [2], expressed as Ki, was 1.3 µM.
In the case of `C[C@]12CCCN[C@@]1(C)c1ccccc1C2` (racemic) [Example 63, (4aRS,9bRS)-4a,9b-dimethyl-2,3,4,4a,5,9b-hexahydro-1H-indeno[1,2-b]pyridine hydrochloride], the IC50 in test [3] (read-out: IC50) was 3 µM. For the same compound, in test [1] (setting [5]), the 50% effective dose (ED50) amounted to 5.8 mg/kg. In test [4], this compound yielded an inhibition constant Ki of 0.8 µM.
For the compound `CC[C@]12CCCN[C@H]1c1cc(COC)ccc1C2` (racemic) [Example 73, (4aRS,9bRS)-4a-ethyl-8-(methoxymethyl)-2,3,4,4a,5,9b-hexahydro-1H-indeno[1,2-b]pyridine hydrochloride], affinity in test [4] was put at a Ki of 7.1 µM.
Turning to `CC[C@]12CCCN[C@H]1c1ccccc1C2` (single isomer, unassigned) [Example 83-1, (4aR*,9bR*)-4a-ethyl-2,3,4,4a,5,9b-hexahydro-1H-indeno[1,2-b]pyridine hydrochloride], in test [3] (hydrochloride, read-out: IC50), the IC50 was 3.1 µM. In test [1] (setting [5]), the 50% effective dose (ED50) came to 6.2 mg/kg. In test [4] (hydrochloride), this compound yielded a Ki of 0.6 µM.
Regarding `CC[C@]12CCCN[C@H]1c1ccccc1C2` (single isomer, unassigned) [Example 83-2, (4aR*,9bR*)-4a-ethyl-2,3,4,4a,5,9b-hexahydro-1H-indeno[1,2-b]pyridine hydrochloride], in test [3] (hydrochloride, read-out: IC50), the half-inhibitory concentration (IC50) was 12 µM. The Ki in test [4] (hydrochloride) was 2.7 µM.
Take `C[C@]12CCCN[C@@]1(C)c1ccccc1C2` (single isomer, unassigned) [Example 84-1, (4aR*,9bR*)-4a,9b-dimethyl-2,3,4,4a,5,9b-hexahydro-1H-indeno[1,2-b]pyridine hydrochloride]: in test [3] (hydrochloride, read-out: IC50), the IC50 was 1.8 µM. Besides, in test [1] (hydrochloride), the ED50 is given as 4.2 mg/kg, po. The inhibition constant (Ki) in test [4] (hydrochloride) was 0.5 µM.
Regarding `C[C@]12CCCN[C@@]1(C)c1ccccc1C2` (single isomer, unassigned) [Example 84-2, (4aR*,9bR*)-4a,9b-dimethyl-2,3,4,4a,5,9b-hexahydro-1H-indeno[1,2-b]pyridine hydrochloride], the 50% inhibitory concentration (IC50) in test [3] (hydrochloride, read-out: IC50) turned out to be 6.1 µM. In test [1] (hydrochloride), the ED50 is given as 28 mg/kg, po. The affinity in test [4] (hydrochloride) corresponds to a Ki of 1.1 µM.
In the case of `c1ccc([C@]23CCCN[C@H]2c2ccccc2C3)cc1` [Example 3], in test [3], the IC50 was determined as 6.8 µM. For the same compound, in test [1] (setting [5]), the 50% effective dose (ED50) amounted to 39 mg/kg. Besides, the inhibitory constant (Ki) in test [4] was found to be 1.2 µM.
`Cc1cc2c(s1)C[C@]1(C)CCCN[C@H]21` [Example 15]: the median effective dose (ED50) in test [1] (setting [5]) came out at 38 mg/kg. Moreover, the affinity in test [2] corresponds to a Ki of 8.5 µM.
In the same order, the values of `C[C@@]12CCCN[C@@H]1c1ccccc1CC2` [Example 17] are 4.2 mg/kg and 2 µM.
As to `CC(C)[C@]12CCCN[C@@H]1c1ccccc1C2` [Example 32], the 50% effective dose (ED50) in test [1] (setting [5]) was determined as 26 mg/kg. The compound further yielded a Ki in test [2] of 6.8 µM.
Compound `COc1ccc2c(c1)[C@H]1N(C)CCC[C@@]1(C)C2` [Example 56] came in with a Ki in test [4] of 1.5 µM.
Consider `COC[C@]12CCCN[C@@]1(C)c1ccccc1C2` [Example 68], for which the 50% effective dose (ED50) in test [1] (setting [5]) amounted to 26 mg/kg. In test [2], this compound displayed an inhibition constant Ki of 0.6 µM.
Compound `CCOC[C@]12CCCN[C@@]1(C)c1ccccc1C2` [Example 69] displayed a Ki in test [4] of 1.3 µM.
Same read-out and setting: then `CC[C@]12CCCN[C@H]1c1cc(CO)ccc1C2` [Example 77], with 4 µM.
On to `C[C@]12CCCN[C@H]1c1ccccc1C2` [Example 81, (4aR,9bR)-4a-methyl-2,3,4,4a,5,9b-hexahydro-1H-indeno[1,2-b]pyridine hydrochloride], for which the 50% inhibitory concentration (IC50) in test [3] (read-out: IC50) was determined as 21 µM. The ED50 in test [1] (setting [5]) was found to be 9.1 mg/kg. In test [4], this compound had an inhibition constant Ki of 2 µM.
`C[C@@]12CCCN[C@@H]1c1ccccc1C2` [Example 82, (4aS,9bS)-4-a-methyl-2,3,4,4a,5,9b-hexahydro-1H-indeno[1,2-b]pyridine hydrochloride]: the IC50 in test [3] (read-out: IC50) is 94 µM. The median effective dose (ED50) in test [1] (setting [5]) was 19 mg/kg. Affinity in test [2] was put at a Ki of 6.7 µM.
